Laboratory results reported in patent publication US20250268934A1, “Compositions and Methods for the Treatment of Bacterial Vaginosis” (priority 2022, published 2025).

How the values were obtained:
[1] = test system: G. vaginalis ATCC 14018 planktonic cells; experiment: Checkerboard assay / MIC against planktonic cells; format: cell-based; conditions: Gardnerella vaginalis, ATCC14018; agent alone, planktonic G. vaginalis 14018, 24 h anaerobic, 37° C.; read-out: minimal inhibitory concentration (MIC)
Procedure: From each dilution of boric acid, 50 μl was added horizontally over 50 μl of metronidazole or tinidazole.
The FIC index (FICI) for the combination of two agents is the sum of their individual FIC values.

[2] = test system: biofilm formation by G. vaginalis ATCC 14018; experiment: Inhibition of biofilm formation (MIC-B, crystal violet staining, checkerboard); format: cell-based, Gardnerella vaginalis; conditions: for MIC: Gardnerella vaginalis, ATCC14018, read-out: MIC-B90
Procedure: Combinations of boric acid with metronidazole or tinidazole were tested in vitro in a non-planktonic, biofilm model for inhibition of biofilm formation by G. vaginalis (ATCC strain 14018).
Bacterial strain, culture media and growth conditions: From the frozen stock (−80° C.), G. vaginalis ATCC 14018 was inoculated in three culture media and propagated at 37° C. for 48 h. Brain-heart infusion (BHI) broth (Difco BD, Franklin, NJ, USA) supplemented with horse serum 3% (JRH Biosciences, KS) was used to maintain microbial growth. […] (HBT) agar (Remel, Lenexa, KS, USA) was used to confirm the purity of the frozen stock. The inoculated broth and HBT agar were incubated anaerobically (10% hydrogen, 5% carbon dioxide and 85% nitrogen) using an anaerobic gloves box (Coy Laboratory Products, Inc., Grass Lake, MI, USA). After the incubation period, the bacterial cells were transferred to BHI broth supplemented with 1% glucose (Fisher Scientific, Waltham, MA, USA) (BHIG), every 24 h twice prior to the initiation of an experiment. In order to provide suitable conditions for G. vaginalis anaerobic growth and to avoid oxidative stress, culture media were pre-incubated in the anaerobic chamber at least overnight before bacterial inoculation.
Stock solutions of antibacterial agents: Antimicrobials were evaluated for their activity against biofilm-associated G. vaginalis. Metronidazole was purchased from Alfa Aesar (Ward Hill, Massachusetts, USA). Metronidazole was prepared as a stock solution of 10 mg mL^−1 in ddH2O. Tinidazole was purchased from TCI America (Portland, OR, USA). Tinidazole was prepared as a stock solution of 10 mg/ml in DMSO. Boric acid was purchased from Fisher Chemical (Hampton, NH, USA). A fresh 1 mg mL^−1 boric acid solution in BHIG was prepared at the beginning of each experiment within the anaerobic chamber, and mixed with BHIG that had been in the anaerobic chamber overnight (to avoid oxidative stress). The stock solutions of antimicrobials were sterilized using syringe filter 0.45 μm and kept in the refrigerator for a maximum of 3 weeks. On the day of the experiment, the stock solutions were diluted in the anaerobic chamber (to avoid oxidative stress) with pre-incubated BHIG broth to avoid changing the concentrations of nutrients of growth media.
Determination of minimum biofilm inhibitory concentrations (MICs-B): MIC determination was performed according to Sutyak et al. (Antimicrob Agents, Ch 56: 1756-61, 2012) with minor modifications. Each agent was diluted two-fold with BHIG broth into two separate 96-well non-tissue culture microplates. From each dilution of boric acid, 50 μl was added horizontally over 50 μl of metronidazole or tinidazole. The final volume of antimicrobial agents diluted into the broth was 100 μL in each well. The overnight cell culture at 3±2×10^8 CFU mL^−1 was diluted in BHIG to a final concentration of 5×10^6 CFU mL^−1. From the diluted bacterial cells, 100 μL was transferred into the wells containing predetermined concentrations of antimicrobials. Sterile sealing tape (Thermo Fisher Scientific, Rochester, NY) was used to prevent evaporation. The 96-well plate was then incubated anaerobically at 37° C. for 48 h. After incubation, the biofilm was stained using 0.1% crystal violet as described by Algburi et al. (Antimicrob Agents, Ch. 61: e00650-17, 2017); Weeks et al. (Pathog Dis 77(8):ftz059, 2019; doi: 10.1093/femspd/ftz059).
Biofilm staining using CV: Biofilm staining using CV was performed as described by Borucki et al. (Appl Environ Microbiol, 69(12):7336-42, 2003, doi: 10.1128/AEM.69.12.7336-7342.2003) with minor modifications. Briefly, after counting of the non-adherent cells, the biofilm was fixed at 60° C. for 60 minutes in an inverted position in an incubator (New Brunswick Scientific Co., Inc., NJ, USA). To each well, 125 μl of 0.1% CV was added and left at room temperature for 20 minutes.

[3] = concentration needed to inhibit 90% of biofilm, agent alone

CCS(=O)(=O)CCn1c([N+](=O)[O-])cnc1C [tinidazole]
MIC [1]: 1.56 µg/mL
MIC [2, 3]: 25 µg/mL
Biofilm mass as a percentage of an untreated control ([2]; well H1: tinidazole 25 μg/ml alone (boric acid 0)): 6%
Biofilm mass as a percentage of an untreated control ([2]; well H2: tinidazole 12.5 μg/ml alone (boric acid 0)): 15%
Biofilm mass as a percentage of an untreated control ([2]; well H3: tinidazole 6.25 μg/ml alone (boric acid 0)): 33%
Biofilm mass as a percentage of an untreated control ([2]; well H4: tinidazole 3.125 μg/ml alone (boric acid 0)): 104%
Biofilm mass as a percentage of an untreated control ([2]; well H5: tinidazole 1.5625 μg/ml alone (boric acid 0)): 133%
Biofilm mass as a percentage of an untreated control ([2]; well H6: tinidazole 0.78125 μg/ml alone (boric acid 0)): 134%
Biofilm mass as a percentage of an untreated control ([2]; well H7: tinidazole 0.390625 μg/ml alone (boric acid 0)): 88%
Biofilm mass as a percentage of an untreated control ([2]; well H8: tinidazole 0.195313 μg/ml alone (boric acid 0)): 92%
Biofilm mass as a percentage of an untreated control ([2]; well H9: tinidazole 0.09765625 μg/ml alone (boric acid 0)): 95%

Cc1ncc([N+](=O)[O-])n1CCO [metronidazole]
MIC [1]: 6.25 µg/mL
MIC [2, 3]: 25 µg/mL
Biofilm mass as a percentage of an untreated control ([2]; well H1: metronidazole 25 μg/ml alone (boric acid 0)): 0%
Biofilm mass as a percentage of an untreated control ([2]; well H2: metronidazole 12.5 μg/ml alone (boric acid 0)): 11%
Biofilm mass as a percentage of an untreated control ([2]; well H3: metronidazole 6.25 μg/ml alone (boric acid 0)): 61%
Biofilm mass as a percentage of an untreated control ([2]; well H4: metronidazole 3.125 μg/ml alone (boric acid 0)): 73%
Biofilm mass as a percentage of an untreated control ([2]; well H5: metronidazole 1.5625 μg/ml alone (boric acid 0)): 88%
Biofilm mass as a percentage of an untreated control ([2]; well H6: metronidazole 0.78125 μg/ml alone (boric acid 0)): 96%
Biofilm mass as a percentage of an untreated control ([2]; well H7: metronidazole 0.390625 μg/ml alone (boric acid 0)): 95%
Biofilm mass as a percentage of an untreated control ([2]; well H8: metronidazole 0.195313 μg/ml alone (boric acid 0)): 123%
Biofilm mass as a percentage of an untreated control ([2]; well H9: metronidazole 0.09765625 μg/ml alone (boric acid 0)): 100%

OB(O)O [boric acid]
MIC [1]: 1.25 µg/mL
MIC [2, 3]: 2.5 µg/mL
MIC-B90 [2, 3]: 0.25 % m/v
Biofilm mass as a percentage of an untreated control ([2]; well A10: boric acid 0.5 m/v alone (metronidazole 0)): −2%
Biofilm mass as a percentage of an untreated control ([2]; well A10: boric acid 0.5 m/v alone (tinidazole 0)): −1%
Biofilm mass as a percentage of an untreated control ([2]; well B10: boric acid 0.25 m/v alone (metronidazole 0)): −1%
Biofilm mass as a percentage of an untreated control ([2]; well B10: boric acid 0.25 m/v alone (tinidazole 0)): 0%
Biofilm mass as a percentage of an untreated control ([2]; well C10: boric acid 0.125 m/v alone (metronidazole 0)): 85%
Biofilm mass as a percentage of an untreated control ([2]; well C10: boric acid 0.125 m/v alone (tinidazole 0)): 63%
Biofilm mass as a percentage of an untreated control ([2]; well D10: boric acid 0.0625 m/v alone (metronidazole 0)): 95%
Biofilm mass as a percentage of an untreated control ([2]; well D10: boric acid 0.0625 m/v alone (tinidazole 0)): 88%
Biofilm mass as a percentage of an untreated control ([2]; well E10: boric acid 0.03125 m/v alone (metronidazole 0)): 92%
Biofilm mass as a percentage of an untreated control ([2]; well E10: boric acid 0.03125 m/v alone (tinidazole 0)): 93%
Biofilm mass as a percentage of an untreated control ([2]; well F10: boric acid 0.015625 m/v alone (metronidazole 0)): 100%
Biofilm mass as a percentage of an untreated control ([2]; well F10: boric acid 0.015625 m/v alone (tinidazole 0)): 95%
Biofilm mass as a percentage of an untreated control ([2]; well G10: boric acid 0.007813 m/v alone (metronidazole 0)): 101%
Biofilm mass as a percentage of an untreated control ([2]; well G10: boric acid 0.007813 m/v alone (tinidazole 0)): 98%
